From patent US20240108654A1, “COMBINATION OF A T CELL THERAPY AND A DGK INHIBITOR” (Juno Therapeutics, Inc., priority 2021, published 2024)

Tested on: anti-CD19 CAR-expressing T cells
Assay: Cytolytic activity of CAR-T cells concurrently treated during chronic stimulation, 3D tumor spheroids
Format: cell-based, human
Conditions: concurrent treatment during chronic stimulation; A549.CD19 and Granta-519 spheroids, day 9
Protocol: To simulate conditions of chronic stimulation, approximately 20,000 anti-CD19 CAR-expressing T cells of a combined CAR-T cell composition produced as described in Example 1 from two healthy adult donors were incubated with 30 μg/mL of plate-bound CAR-specific anti-idiotypic antibody (see, e.g., WO2018/023100) at 37° C. for a period of seven days. During this seven-day period, engineered CAR T cells were concurrently treated with Compound 17 (0.1-1000 nM) or a vehicle control added at day 0.
To further assess activity of chronically stimulated cell, the chronically stimulated CAR-T cells that had been concurrently treated with DGKi were incubated with A549 CD19+ tumor spheroids or Granta-519 tumor spheroids to rechallenge the CAR-T cells at an effector to target ratio of 1:2 for up to 14 days. The tumor spheroids were engineered to express a red fluorescent dye to permit monitoring of tumor cell lysis by microscopy during the assay.
The antigen-specific cytolytic activity of the chronically stimulated CAR-expressing T cells was assessed by monitoring fluorescence (indicative of tumor cell lysis) over time. The tumor volume (normalized to time zero) was measured as the number of red calibrated units (RCU)×μm^2 area. […] Duplicate values for cell compositions manufactured from the two different healthy donors are shown.

Question: Which “CAR-T cell cytolytic activity (normalized tumor volume)” value does the source give for `CC[C@H]1CN([C@@H](CC)c2ccc(C(F)(F)F)cc2)[C@H](CC)CN1c1nc(=O)n(C)c2ccc(C#N)nc12` [Compound 17, 4-((2S,5R)-2,5-diethyl-4-((S)-1-(4-(trifluoromethyl)phenyl)propyl)piperazin-1-yl)-1-methyl-2-oxo-1,2-dihydropyrido[3,2-d]pyrimidine-6-carbonitrile] here?
Answer: modestly reduced the cytolytic activity
